Test results from patent US11458189B2, “Cytoprotective drugs” (BALMES TRANSPLANTATION, priority 2017, dated 2022).
Starred links: 1 amine or outer side, 2 acyl side, 3 side chain; linkers in the order of their positions; H or OH if unused. Positions of bridges follow the written chain, without caps; N, C: chain ends. Non-standard residues stand in square brackets, D forms with d. Residues, ends and D or L forms follow the SMILES beside them. *: point of attachment. hTyr(3S-OH,4S-OH,3'-OSO3H) = N[C@H](C(=O)O)[C@H](O)[C@@H](O)c1ccc(O)c(OS(=O)(=O)O)c1; Orn(4R-OH,5R-OH) = O=C([C@H](C[C@@H](O)[C@@H](O)N[*:3])N[*:1])[*:2]; Pro(3S-OH,4S-Me) = C[C@H]1CN[C@H](C(=O)O)[C@H]1O; X1 = CCCCCOc1ccc(-c2cc(-c3ccc(C(=O)*)cc3)no2)cc1; Gln(3R-OH) = NC(=O)C[C@@H](O)[C@H](N)C(=O)O; Hyp = O=C(O)[C@@H]1C[C@@H](O)CN1

System: Human Renal Proximal Tubular Epithelial Cells (HRPTEpiC)
Experiment: Oxygen and glucose deprivation followed by replenishment, cell survival (calcein AM), HRPTEpiC
Assay type: cell-based
Description: Anidulafungin and micafungin were tested on Human Renal Glomerular Endothelial Cells (HRGEC, Innoprot P10665), on Human Renal Proximal Tubular Epithelial Cells (HRPTEpiC, Innoprot P10662), on Human Astrocytes (HA, caltag SC-1800), on Human Cardiac Microvascular Endothelial Cells (HCMEC, Caltag SC-6000), on Human Hepatic Sinusoidal Endothelial Cells (HHSEC, Caltag SC-5000), on Rat Primary Kidney Glomerular Endothelial cells (Cellbiologics, RN-6014G) and on Bovine Brain Microvascular Endothelial Cells (BBMEC, Caltag SC-B100).
In a first phase, these isolated, purified and cryopreserved cells are thawed and multiplied according to the supplier's recommendations in T75 or T175 flasks pre-coated with 2 μg of fibronectin/[…] (CORNING) for HRGEC, HCMEC, HHSEC and BBMEC, or 2 μg poly-L-lysin/cm^2 (Caltag SC-0403) for HRPTEpiC and HA, or 15 mL/flask 175 cm^2 gelatin-based solution (Cellbiologics) in the presence of endothelial cell supplemented growth medium ECM (P60104, INNOPROT, Caltag, SC-1001) for HRGEC, HCMEC, HHSEC, RPKGEC or BBMEC, or astrocyte cell supplemented growth medium AM (Caltag SC-1801) for HA or epithelial cell supplemented growth medium EpiCM (P60106, INNOPROT) for HRPTEpiC, at 37° C. under 5% CO2 and saturated humidity until their confluency. They are then harvested by trypsinization according to the method described by the supplier for exactly 5 minutes and then reseeded in new flasks a maximum of three times.
To carry out the oxygen and glucose deprivation test followed by their replenishment, the cells will be seeded in 96-well black plates with transparent flat bottom (GREINER). Once a sufficient number of cells has been obtained to allow seeding of 2000 to 15000 cells per well of 96-well plates depending on the cell type, the cells are seeded in these 96-well plates previously coated with an extracellular matrix as listed above for the flasks. The cells are cultured for 5 to 8 days according to the cell type, in the presence of the same growth medium as in the flask as described above except for HRGEC and HRPTEpiC for which DMEM (DUTSCHER) with 1 g/L of supplemented glucose is used, at 37° C. under 5% CO2 and saturated humidity to obtain confluency.
On the first day of oxygen and glucose deprivation, (5th, 6th, 7th or 8th day of culture), the culture conditions are drastically changed. The medium of all plates is removed and replaced by DMEM (DUTSCHER) medium without glucose and supplemented only with 1% penicillin-streptomycin (DUTSCHER). Anidulafungin or micafungin dissolved in dimethyl sulfoxide (DMSO) is then added to each well at the desired concentration, resulting in a maximum of 1% DMSO, and the plates are placed under hypoxia at <1% 02 and 5% CO2 at 37° C. for 24 hours of culture. Each compound was tested in a concentration range.
After 24 hours, the growth medium is changed and replaced by a richer medium, DMEM (DUTSCHER) at 1 g/L glucose and 2% FBS (INNOPROT) and 1% penicillin-streptomycin (DUTSCHER). These media will have been pre-equilibrated at 37° C. in advance. The cells are then returned to culture at 37° C. under 20% 02 and 5% CO2 for 22h.
After 22 hours of reoxygenation, the potential protective effect of anidulafungin or micafungin is measured by a cell viability test using calcein AM (CORNING), which is a dye substrate. The calcein AM can easily cross the cell membrane of the viable cells. The AM ester groups mask the part of the molecule that chelates calcium. Once inside the cells, the (non-fluorescent) calcein AM is hydrolyzed to (fluorescent) calcein by endogenous esterases. The resulting calcein molecule binds to calcium inside the cell and remains trapped inside the cell. These molecules emit strong green fluorescence when subjected to […] of a particular wavelength (495 nm). Since dead cells lack esterase activity, only living cells are labelled.
This cell viability test is performed in two steps. […]

SMILES: CCCCCOc1ccc(-c2cc(-c3ccc(C(=O)N[C@H]4C[C@@H](O)[C@@H](O)NC(=O)[C@@H]5[C@@H](O)[C@@H](C)CN5C(=O)[C@H]([C@H](O)CC(N)=O)NC(=O)[C@H]([C@H](O)[C@@H](O)c5ccc(O)c(OS(=O)(=O)O)c5)NC(=O)[C@@H]5C[C@@H](O)CN5C(=O)[C@H]([C@@H](C)O)NC4=O)cc3)no2)cc1 [Micafungin, {5-[(1S,2S)-2-[(3S,6S,9S,11R,15S,18S,20R,21R,24S,25S,26S)-3-[(1R)-2-carbamoyl-1-hydroxyethyl]-11,20,21,25-tetrahydroxy-15-[(1R)-1-hydroxyethyl]-26-methyl-2,5,8,14,17,23-hexaoxo-18-[(4-{5-[4-(pentyloxy)phenyl]-1,2-oxazol-3-yl}benzene)amido]-1,4,7,13,16,22-hexaazatricyclo[22.3.0.0]heptacosan-6-yl]-1,2-dihydroxyethyl]-2-hydroxyphenyl}oxidanesulfonic acid] (X1-[Orn(4R-OH,5R-OH)]T[Hyp][hTyr(3S-OH,4S-OH,3'-OSO3H)][Gln(3R-OH)][Pro(3S-OH,4S-Me)]; lactam 1-C)
- Globalfluo assay 1 ([Micafungin] log μM −4.39794): 17038910 arbitrary units
- Globalfluo assay 2 ([Micafungin] log μM −4.39794): 16914110 arbitrary units
- Globalfluo assay 3 ([Micafungin] log μM −4.39794): 17516930 arbitrary units
- Mean globalfluo ([Micafungin] log μM −4.39794): 17156650 arbitrary units
- Survival rate (%) ([Micafungin] log μM −4.39794): 58%
- Globalfluo assay 1 ([Micafungin] log μM −4.69897): 18487560 arbitrary units
- Globalfluo assay 2 ([Micafungin] log μM −4.69897): 18879740 arbitrary units
- Globalfluo assay 3 ([Micafungin] log μM −4.69897): 18282240 arbitrary units
- Mean globalfluo ([Micafungin] log μM −4.69897): 18549847 arbitrary units
- Survival rate (%) ([Micafungin] log μM −4.69897): 63%
- Globalfluo assay 1 ([Micafungin] log μM −4.79588): 17777390 arbitrary units
- Globalfluo assay 2 ([Micafungin] log μM −4.79588): 17681470 arbitrary units
- Globalfluo assay 3 ([Micafungin] log μM −4.79588): 18724080 arbitrary units
- Mean globalfluo ([Micafungin] log μM −4.79588): 18060980 arbitrary units
- Survival rate (%) ([Micafungin] log μM −4.79588): 61%
- Globalfluo assay 1 ([Micafungin] log μM −4.853872): 17634840 arbitrary units
- Globalfluo assay 2 ([Micafungin] log μM −4.853872): 17920170 arbitrary units
- Globalfluo assay 3 ([Micafungin] log μM −4.853872): 19831830 arbitrary units
- Mean globalfluo ([Micafungin] log μM −4.853872): 18462280 arbitrary units
- Survival rate (%) ([Micafungin] log μM −4.853872): 63%
- Globalfluo assay 1 ([Micafungin] log μM −4.920819): 18495680 arbitrary units
- Globalfluo assay 2 ([Micafungin] log μM −4.920819): 17954570 arbitrary units
- Globalfluo assay 3 ([Micafungin] log μM −4.920819): 19304800 arbitrary units
- Mean globalfluo ([Micafungin] log μM −4.920819): 18585017 arbitrary units
- Survival rate (%) ([Micafungin] log μM −4.920819): 64%
- Globalfluo assay 1 ([Micafungin] log μM −5): 19091330 arbitrary units
- Globalfluo assay 2 ([Micafungin] log μM −5): 21245570 arbitrary units
- Globalfluo assay 3 ([Micafungin] log μM −5): 20574080 arbitrary units
- Mean globalfluo ([Micafungin] log μM −5): 20303660 arbitrary units
- Survival rate (%) ([Micafungin] log μM −5): 71%
- Globalfluo assay 1 ([Micafungin] log μM −5.30103): 17265090 arbitrary units
- Globalfluo assay 2 ([Micafungin] log μM −5.30103): 20693980 arbitrary units
- Globalfluo assay 3 ([Micafungin] log μM −5.30103): 20348120 arbitrary units
- Mean globalfluo ([Micafungin] log μM −5.30103): 19435730 arbitrary units
- Survival rate (%) ([Micafungin] log μM −5.30103): 67%
- Globalfluo assay 1 ([Micafungin] log μM −5.69897): 5296218 arbitrary units
- Globalfluo assay 2 ([Micafungin] log μM −5.69897): 13559640 arbitrary units
- Globalfluo assay 3 ([Micafungin] log μM −5.69897): 14370600 arbitrary units
- Mean globalfluo ([Micafungin] log μM −5.69897): 11075486 arbitrary units
- Survival rate (%) ([Micafungin] log μM −5.69897): 32%
- Globalfluo assay 1 ([Micafungin] log μM −5.823909): 4696579 arbitrary units
- Globalfluo assay 2 ([Micafungin] log μM −5.823909): 8382404 arbitrary units
- Globalfluo assay 3 ([Micafungin] log μM −5.823909): 9632039 arbitrary units
- Mean globalfluo ([Micafungin] log μM −5.823909): 7570341 arbitrary units
- Survival rate (%) ([Micafungin] log μM −5.823909): 18%
- Globalfluo assay 1 ([Micafungin] log μM −6): 5307945 arbitrary units
- Globalfluo assay 2 ([Micafungin] log μM −6): 5614600 arbitrary units
- Globalfluo assay 3 ([Micafungin] log μM −6): 8026091 arbitrary units
- Mean globalfluo ([Micafungin] log μM −6): 6316212 arbitrary units
- Survival rate (%) ([Micafungin] log μM −6): 13%
- Globalfluo assay 1 ([Micafungin] log μM −6.09691): 6028392 arbitrary units
- Globalfluo assay 2 ([Micafungin] log μM −6.09691): 5998920 arbitrary units
- Globalfluo assay 3 ([Micafungin] log μM −6.09691): 5793032 arbitrary units
- Mean globalfluo ([Micafungin] log μM −6.09691): 5940115 arbitrary units
- Survival rate (%) ([Micafungin] log μM −6.09691): 11%
- Globalfluo assay 1 ([Micafungin] log μM −6.221849): 4745212 arbitrary units
- Globalfluo assay 2 ([Micafungin] log μM −6.221849): 4694631 arbitrary units
- Globalfluo assay 3 ([Micafungin] log μM −6.221849): 5790310 arbitrary units
- Mean globalfluo ([Micafungin] log μM −6.221849): 5076718 arbitrary units
- Survival rate (%) ([Micafungin] log μM −6.221849): 8%
- Globalfluo assay 1 ([Micafungin] log μM −6.39794): 4361975 arbitrary units
- Globalfluo assay 2 ([Micafungin] log μM −6.39794): 4442347 arbitrary units
- Globalfluo assay 3 ([Micafungin] log μM −6.39794): 5176795 arbitrary units
- Mean globalfluo ([Micafungin] log μM −6.39794): 4660372 arbitrary units
- Survival rate (%) ([Micafungin] log μM −6.39794): 6%
- Globalfluo assay 1 ([Micafungin] log μM −6.69897): 4839699 arbitrary units
- Globalfluo assay 2 ([Micafungin] log μM −6.69897): 4005588 arbitrary units
- Globalfluo assay 3 ([Micafungin] log μM −6.69897): 4289833 arbitrary units
- Mean globalfluo ([Micafungin] log μM −6.69897): 4378373 arbitrary units
- Survival rate (%) ([Micafungin] log μM −6.69897): 5%
- Globalfluo assay 1 ([Micafungin] log μM −7): 3602590 arbitrary units
- Globalfluo assay 2 ([Micafungin] log μM −7): 3530551 arbitrary units
- Globalfluo assay 3 ([Micafungin] log μM −7): 3665638 arbitrary units
- Mean globalfluo ([Micafungin] log μM −7): 3599593 arbitrary units
- Survival rate (%) ([Micafungin] log μM −7): 2%
- Globalfluo assay 1 ([Micafungin] log μM −8): 3781795 arbitrary units
- Globalfluo assay 2 ([Micafungin] log μM −8): 3409519 arbitrary units
- Globalfluo assay 3 ([Micafungin] log μM −8): 3718559 arbitrary units
- Mean globalfluo ([Micafungin] log μM −8): 3636624 arbitrary units
- Survival rate (%) ([Micafungin] log μM −8): 2%
